The values below come from US8575156B2, “Cyclic inhibitors of 11β-hydroxysteroid dehydrogenase 1” (Vitae Pharmaceuticals, Inc., priority 2007, dated 2013).

Where two headings read alike, the source gives them in different places.

The experiment deals with 11β-HSD1 (Homo sapiens, UniProt P28845). The experiment can be described thus: biochemical. To be noted: for IC50: IC50 Range, Biological Test Example 1, microsomes from CHO cells overexpressing human 11β-HSD1.
The mark [1] stands for this setting: read-out: Average % inhibition at 111.1 nM, Biological Test Example 1, 111.1 nM compound.
The mark [2] stands for this setting: read-out: Average % inhibition at 100 nM, Biological Test Example 1, 100 nM compound.
The mark [3] stands for this setting: read-out: Average % inhibition at 100 nM.

Sequence of 11β-HSD1 (P28845 whole entry): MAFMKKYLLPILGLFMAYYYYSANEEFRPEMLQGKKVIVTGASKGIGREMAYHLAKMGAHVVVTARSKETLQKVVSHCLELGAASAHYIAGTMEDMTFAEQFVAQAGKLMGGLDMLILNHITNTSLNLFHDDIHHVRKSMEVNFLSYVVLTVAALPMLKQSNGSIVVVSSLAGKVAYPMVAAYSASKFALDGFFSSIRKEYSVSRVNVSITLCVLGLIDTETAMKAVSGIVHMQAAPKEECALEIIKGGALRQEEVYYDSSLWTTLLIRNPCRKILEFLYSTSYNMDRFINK

A word on the IC50: it is the point on the concentration scale where inhibition reaches its midpoint. Lower therefore signals inhibition by little substance. By inhibition is commonly meant the change of the read-out against control, counted positive when it falls. The molecule `O=C1OC(CCO)(c2ccccc2F)CCN1c1ccc(F)c(-c2ccc(F)cc2F)c1` (centres unmarked) [EXAMPLE 106, 6-(2-fluorophenyl)-6-(2-hydroxyethyl)-3-(2′,4′,6-trifluorobiphenyl-3-yl)-1,3-oxazinan-2-one] yielded a 50% inhibitory concentration (IC50) of less than 0.1 µM. Moreover, under setting [1], the inhibition at 0.1111 µM stood at 88.7%.

In the case of `O=C1OC(CCO)(c2ccccc2)CCN1c1cccc(-c2ccc(F)cc2F)n1` (centres unmarked) [EXAMPLE 107, 3-(6-(2,4-difluorophenyl)pyridin-2-yl)-6-(2-hydroxyethyl)-6-phenyl-1,3-oxazinan-2-one], the IC50 is less than 0.1 µM. Moreover, the inhibition at 0.1 µM under setting [2] is 90.9%. For the same molecule, the inhibition at 0.1111 µM under setting [1] came out at 97%.

With `O=C1OC(CCO)(c2ccc(F)cc2)CCN1c1cccc(-c2ccc(F)cc2F)n1` (centres unmarked) [EXAMPLE 108, 3-(6-(2,4-difluorophenyl)pyridin-2-yl)-6-(4-fluorophenyl)-6-(2-hydroxyethyl)-1,3-oxazinan-2-one], the IC50 was less than 0.1 µM. Further, the inhibition at 0.1111 µM under setting [1] is 55.4%.

`O=C1OC(CCO)(c2ccccc2)CCN1c1cccc(-c2ccc(F)cc2Cl)n1` (centres unmarked) [EXAMPLE 116, 3-(6-(2-chloro-4-fluorophenyl)pyridin-2-yl)-6-(2-hydroxyethyl)-6-phenyl-1,3-oxazinan-2-one] came in with an IC50 of less than 0.1 µM. Besides, under setting [1], the inhibition at 0.1111 µM was determined as 97.6%.

`CC(C)(O)CC1(c2ccccc2)CCN(c2cccc(-c3ccc(F)cc3F)c2)C(=O)O1` (centres unmarked) [EXAMPLE 117, 3-(2′,4′-difluorobiphenyl-3-yl)-6-(2-hydroxy-2-methylpropyl)-6-phenyl-1,3-oxazinan-2-one] had a concentration for half-maximal inhibition (IC50) of less than 0.1 µM. The inhibition at 0.1111 µM under setting [1] came to 82.8%.

`O=C1OC(CCO)(c2ccc(F)cc2)CCN1c1cccc(-c2ccc(F)cc2Cl)n1` (centres unmarked) [EXAMPLE 118, 3-(6-(2-chloro-4-fluorophenyl)pyridin-2-yl)-6-(4-fluorophenyl)-6-(2-hydroxyethyl)-1,3-oxazinan-2-one]: the half-maximal inhibitory concentration (IC50) is less than 0.1 µM. Besides, the inhibition at 0.1111 µM under setting [1] was found to be 96.8%.

`CC1(c2ccccc2)CCN(c2nc(-c3ccccc3)cs2)C(=O)O1` (centres unmarked) [EXAMPLE 121, 6-methyl-6-phenyl-3-(4-phenylthiazol-2-yl)-1,3-oxazinan-2-one] had an IC50 of 0.1 to 1 µM. Also, the inhibition at 0.1111 µM under setting [1] came to 34.2%.

In turn, `C[C@@H](C1CCCCC1)N1CC[C@](CCCO)(c2ccc(F)cc2)OC1=O` [EXAMPLE 122, (R)-3-((S)-1-cyclohexylethyl)-6-(4-fluorophenyl)-6-(3-hydroxypropyl)-1,3-oxazinan-2-one] came in with a 50% inhibitory concentration (IC50) of less than 0.1 µM. For the same molecule, the inhibition at 0.1 µM under setting [2] is 94.1%. For the same molecule, the inhibition at 0.1111 µM under setting [1] was found to be 95.6%.

For the molecule `C=CC[C@]1(c2ccc(F)cc2)CCN([C@@H](C)c2ccc(C3CC3)cc2)C(=O)O1` [EXAMPLE 123, (R)-6-allyl-3-((S)-1-(4-cyclopropylphenyl)ethyl)-6-(4-fluorophenyl)-1,3-oxazinan-2-one], the IC50 was less than 0.1 µM. The inhibition at 0.1111 µM under setting [1] was 97.6%.

The molecule `C=CC[C@]1(c2ccc(F)cc2)CCN([C@@H](C)c2ccc(C(=O)OC)cc2)C(=O)O1` [EXAMPLE 124, Methyl 4-((S)-1-((R)-6-allyl-6-(4-fluorophenyl)-2-oxo-1,3-oxazinan-3-yl)ethyl)benzoate] returned an IC50 of less than 0.1 µM. The inhibition at 0.1 µM under setting [2] was determined as 95.2%. Also, the inhibition at 0.1111 µM under setting [1] came out at 96.8%.

The molecule `C[C@@H](c1ccc(C2CC2)cc1)N1CC[C@](CCCO)(c2ccc(F)cc2)OC1=O` [EXAMPLE 125, (R)-3-((S)-1-(4-cyclopropylphenyl)ethyl)-6-(4-fluorophenyl)-6-(3-hydroxypropyl)-1,3-oxazinan-2-one] displayed an IC50 of less than 0.1 µM. In addition, the inhibition at 0.1 µM under setting [2] came to 98.3%. In addition, the inhibition at 0.1111 µM under setting [1] came to 94%.

The molecule `O=C1O[C@@](CCO)(c2ccccc2)CCN1c1cccc(-c2ccc(F)cc2)[n+]1[O-]` [EXAMPLE 126, (S)-2-(4-fluorophenyl)-6-(6-(2-hydroxyethyl)-2-oxo-6-phenyl-1,3-oxazinan-3-yl)pyridine 1-oxide] displayed an IC50 of less than 0.1 µM. Moreover, the inhibition at 0.1 µM under setting [2] turned out to be 79%. For the same molecule, the inhibition at 0.1111 µM under setting [1] came out at 80.7%.

`COC(=O)c1ccc([C@H](C)N2CC[C@](CCCO)(c3ccc(F)cc3)OC2=O)cc1` [EXAMPLE 127, Methyl 4-((S)-1-((R)-6-(4-fluorophenyl)-6-(3-hydroxypropyl)-2-oxo-1,3-oxazinan-3-yl)ethyl)benzoate] registered a concentration for half-maximal inhibition (IC50) of less than 0.1 µM. The inhibition at 0.1 µM under setting [2] is 86.3%.

`C=CCC1(c2ccc(F)cc2)CCN(C(C)c2ccc(-c3ccc(F)cc3F)cn2)C(=O)O1` (centres unmarked) [EXAMPLE 131, 6-allyl-3-(1-(5-(2,4-difluorophenyl)pyridin-2-yl)ethyl)-6-(4-fluorophenyl)-1,3-oxazinan-2-one]: the IC50 is more than 1 µM. The inhibition at 0.1 µM under setting [2] stood at 6.6%. Moreover, the inhibition at 0.1111 µM under setting [1] stood at 11.3%.

The molecule `O=C1OC(CCO)(c2ccccc2F)CCN1c1cccc(-c2ccc(F)cc2F)[n+]1[O-]` (centres unmarked) [EXAMPLE 132, 2-(2,4-difluorophenyl)-6-(6-(2-fluorophenyl)-6-(2-hydroxyethyl)-2-oxo-1,3-oxazinan-3-yl)pyridine 1-oxide] showed a half-maximal inhibitory concentration (IC50) of 0.1 to 1 µM. In addition, the inhibition at 0.1111 µM under setting [1] was 30.4%.

`O=C1OC(CCO)(c2ccccc2F)CCN1c1ccc(Cl)c(-c2ccc(F)cc2)n1` (centres unmarked) [EXAMPLE 133, 3-(5-chloro-6-(4-fluorophenyl)pyridin-2-yl)-6-(2-fluorophenyl)-6-(2-hydroxyethyl)-1,3-oxazinan-2-one] registered an IC50 of less than 0.1 µM. For the same molecule, the inhibition at 0.1 µM under setting [3] came out at 85.8%. For the same molecule, the inhibition at 0.1111 µM (read-out: Average % inhibition at 111.1 nM) stood at 95.4%.

The molecule `O=C1OC(CCO)(c2ccccc2F)CCN1c1ccc(Cl)c(-c2ccc(F)cc2F)n1` (centres unmarked) [EXAMPLE 135, 3-(5-chloro-6-(2,4-difluorophenyl)pyridin-2-yl)-6-(2-fluorophenyl)-6-(2-hydroxyethyl)-1,3-oxazinan-2-one] came in with an IC50 of less than 0.1 µM. Moreover, the inhibition at 0.1 µM under setting [2] was 88.9%. Besides, the inhibition at 0.1111 µM under setting [1] was determined as 93.8%.

In turn, `C[C@@H](c1ccc(C(=O)O)cc1)N1CC[C@](CCCO)(c2ccc(F)cc2)OC1=O` [EXAMPLE 142, 4-((S)-1-((R)-6-(4-fluorophenyl)-6-(3-hydroxypropyl)-2-oxo-1,3-oxazinan-3-yl)ethyl)benzoic acid] registered an IC50 of 0.1 to 1 µM. Moreover, the inhibition at 0.1 µM under setting [2] worked out at 34.4%. In addition, the inhibition at 0.1111 µM under setting [1] stood at 27.4%.

The molecule `C=CC[C@]1(c2ccc(F)cc2)CCN([C@@H](C)c2ccc(C(N)=O)cc2)C(=O)O1` [EXAMPLE 153, 4-((S)-1-((R)-6-allyl-6-(4-fluorophenyl)-2-oxo-1,3-oxazinan-3-yl)ethyl)benzamide] showed an IC50 of 0.1 to 1 µM. Also, the inhibition at 0.1 µM under setting [2] turned out to be 27%. For the same molecule, the inhibition at 0.1111 µM under setting [1] amounted to 26.6%.

`C[C@@H](c1ccc(CO)cc1)N1CC[C@](CCCO)(c2ccc(F)cc2)OC1=O` [EXAMPLE 154, (R)-6-(4-fluorophenyl)-3-((S)-1-(4-(hydroxymethyl)phenyl)ethyl)-6-(3-hydroxypropyl)-1,3-oxazinan-2-one] returned an IC50 of less than 0.1 µM. Besides, the inhibition at 0.1111 µM under setting [1] is 79%.

In turn, `C=CC[C@]1(c2ccc(F)cc2)CCN([C@@H](C)c2ccc(C(=O)NC)cc2)C(=O)O1` [EXAMPLE 155, 4-((S)-1-((R)-6-allyl-6-(4-fluorophenyl)-2-oxo-1,3-oxazinan-3-yl)ethyl)-N-methylbenzamide] displayed a concentration for half-maximal inhibition (IC50) of 0.1 to 1 µM. Under setting [1], the inhibition at 0.1111 µM is 45.6%.

In turn, `C=CC[C@]1(c2ccc(F)cc2)CCN([C@@H](C)c2ccc(C(C)(C)O)cc2)C(=O)O1` [EXAMPLE 156, (R)-6-allyl-6-(4-fluorophenyl)-3-((S)-1-(4-(2-hydroxypropan-2-yl)phenyl)ethyl)-1,3-oxazinan-2-one] gave an IC50 of less than 0.1 µM. For the same molecule, under setting [1], the inhibition at 0.1111 µM is 93.8%.

`C=CC[C@@]1(c2cccs2)CCN([C@@H](C)c2ccc(-c3ccc(F)cc3F)cc2)C(=O)O1` [EXAMPLE 165, (S)-6-allyl-3-((S)-1-(2′,4′-difluorobiphenyl-4-yl)ethyl)-6-(thiophen-2-yl)-1,3-oxazinan-2-one] came in with an IC50 of less than 0.1 µM. For the same molecule, the inhibition at 0.1111 µM under setting [1] was found to be 92.9%.

Take `C[C@@H](c1ccc(-c2ccc(F)cc2)cc1)N1CC[C@@](CCCO)(c2cccs2)OC1=O` [EXAMPLE 166, (S)-3-((S)-1-(4′-fluorobiphenyl-4-yl)ethyl)-6-(3-hydroxypropyl)-6-(thiophen-2-yl)-1,3-oxazinan-2-one]: the half-maximal inhibitory concentration (IC50) was less than 0.1 µM. Besides, under setting [1], the inhibition at 0.1111 µM came out at 81.8%.

The molecule `CC(O)C[C@]1(c2ccccc2)CCN([C@@H](C)c2ccc(-c3ccc(F)cc3F)cc2)C(=O)O1` (stereo partly drawn) [EXAMPLE 170, (6S)-3-((S)-1-(2′,4′-difluorobiphenyl-4-yl)ethyl)-6-(2-hydroxypropyl)-6-phenyl-1,3-oxazinan-2-one] returned an IC50 of less than 0.1 µM. Under setting [2], the inhibition at 0.1 µM amounted to 97%.

`C[C@@H](c1ccc(-c2ccc(F)cc2F)cc1)N1CC[C@](CC(=O)O)(c2ccc(F)cc2)OC1=O` [EXAMPLE 174, 2-((S)-3-((S)-1-(2′,4′-difluorobiphenyl-4-yl)ethyl)-6-(4-fluorophenyl)-2-oxo-1,3-oxazinan-6-yl)acetic acid]: the IC50 lay in the range of 0.1 to 1 µM. For the same molecule, the inhibition at 0.1111 µM under setting [1] came out at 48%.

As for `C=CC[C@]1(c2ccc(F)cc2)CCN([C@@H](C)c2ccc(C#N)cc2)C(=O)O1` [EXAMPLE 192, 4-((S)-1-((R)-6-allyl-6-(4-fluorophenyl)-2-oxo-1,3-oxazinan-3-yl)ethyl)benzonitrile], the half-maximal inhibitory concentration (IC50) was less than 0.1 µM. Under setting [2], the inhibition at 0.1 µM stood at 70.7%.

`COc1ccc([C@H](C)N2CC[C@](CCO)(c3ccc(F)cc3)OC2=O)cc1` [EXAMPLE 195, (S)-6-(4-fluorophenyl)-6-(2-hydroxyethyl)-3-((S)-1-(4-methoxyphenyl)ethyl)-1,3-oxazinan-2-one]: the IC50 is less than 0.1 µM. For the same molecule, the inhibition at 0.1 µM under setting [2] came to 96.8%.

Molecule `COCc1ccc([C@H](C)N2CC[C@](CCCO)(c3ccccc3)OC2=O)cc1` [EXAMPLE 199, (R)-6-(3-hydroxypropyl)-3-((S)-1-(4-(methoxymethyl)phenyl)ethyl)-6-phenyl-1,3-oxazinan-2-one] registered a 50% inhibitory concentration (IC50) of less than 0.1 µM. The inhibition at 0.1 µM under setting [3] was determined as 90.3%.
